Active and inactive are the calls of the source. The calls are words filed in the database; no cut-off is given here.
Key:
A549 [1] = test: Antitumor activity against human A549 cells xenografted in BALB/c nude mouse assessed as tumor growth inhibition at 30 mg/kg, ip; assay type: functional; details: read-out: TGI
Mus musculus = test: Toxicity in BALB/c nude mouse xenografted with human A549 cells assessed as change in body weight at 30 mg/kg, ip; assay type: organism-based; details: in vivo
MDA-MB-231 = test: Antiproliferative activity against human MDA-MB-231 cells after 48 hrs by MTT assay; details: MDA-MB-231, 48 h
LoVo = test: Antiproliferative activity against human LoVo cells after 48 hrs by MTT assay
RKO = test: Antiproliferative activity against human RKO cells after 48 hrs by MTT assay
A549 [2] = test: cells; details: Homo sapiens, A549, 48 h
HepG2 = test: cells; details: Homo sapiens, HepG2, 48 h
MGC-803 = test: Antiproliferative activity against human MGC803 cells after 48 hrs by MTT assay; details: MGC-803, 48 h
A549/CDDP = test: Antiproliferative activity against human A549/CDDP cells after 48 hrs by MTT assay; assay type: functional, cell-based
[3] = Antiproliferative activity against human HepG2/DOX cells after 48 hrs by MTT assay; assay type: functional, cell-based
[4] = Resistance index, ratio of IC50 for human A549/CDDP cells to IC50 for human A549 cells; assay type: functional
[5] = Resistance index, ratio of IC50 for human HepG2/DOX cells to IC50 for human HepG2 cells; assay type: functional
[6] = Metabolic stability in Sprague-Dawley rat liver microsomes assessed as compound remaining after 30 mins in presence of NADPH by UV-based HPLC-MS/MS analysis; assay type: ADME, microsome; details: read-out: Stability
[7] = Metabolic stability in Sprague-Dawley rat liver microsomes assessed as compound remaining after 60 mins in presence of NADPH by UV-based HPLC-MS/MS analysis; assay type: ADME, microsome; details: read-out: Stability
[8] = Metabolic stability in Sprague-Dawley rat liver microsomes assessed as compound remaining after 90 mins in presence of NADPH by UV-based HPLC-MS/MS analysis; assay type: ADME, microsome; details: read-out: Stability
[9] = Metabolic stability in Sprague-Dawley rat liver microsomes assessed as compound remaining after 120 mins in presence of NADPH by UV-based HPLC-MS/MS analysis; assay type: ADME, microsome; details: read-out: Stability
[10] = (§1) Metabolic stability in Sprague-Dawley rat liver microsomes assessed as compound remaining after 150 mins in presence of NADPH by UV-based HPLC-MS/MS analysis; assay type: ADME, microsome; details: Sprague-Dawley, liver microsomes, read-out: Stability
[11] = Half life in Sprague-Dawley rat by UV-based HPLC-MS/MS analysis; assay type: ADME; details: in vivo
[12] = Inhibition of porcine brain tubulin polymerization measured every 60 seconds for 90 mins by DAPI staining-based fluorescence assay; parameters: species or system Sus scrofa
A549 [13] = test: Induction of microtubule disruption in human A549 cells at 5 to 10 nM after 8 to 24 hrs by Hoechst 33342 staining-based laser scanning confocal immunofluorescence microscopic analysis; assay type: cell-based
MCF7 = test: cells; details: Homo sapiens, MCF7, 48 h
HeLa = test: cells; details: Homo sapiens, 48 h
HCT-116 = test: cells; details: Homo sapiens, HCT-116, 48 h
A2780 = test: cells; details: Homo sapiens, A2780, 48 h
Description: Antiproliferative activity against human A2780 cells after 48 hrs by MTT assay

Liver = test: as §1; assay type: ADME, microsome; details: microsomes, 2.5 h

| Structure (SMILES) | IC50 (MDA-MB-231) [nM] | IC50 (LoVo) [nM] | IC50 (RKO) [nM] | IC50 (A549 [2]) [nM] | IC50 (HepG2) [nM] | other results |
| --- | --- | --- | --- | --- | --- | --- |
| C=C(c1ccc(OC)c(OP(=O)([O-])[O-])c1)c1cc(OC)c(OC)c([Se]C)c1.[Na+].[Na+] |  |  |  |  |  | inhibition in vivo at 30 mg/kg (A549 [1]): 72.9%; Activity (Mus musculus): Non-Toxic |
| C=C(c1cc(OC)c(OC)c(OC)c1)c1cc(OC)c(OC)c([Se]C)c1 | 3320 | 3140 | 3520 | 473 | 1350 |  |
| C=C(c1cc(OC)c(OC)c([Se]C)c1)c1ccc(OC)c(OC)c1OC | 3820 | 128 | 1040 | 1380 | 6300 |  |
| C=C(c1ccc([Se]C)cc1)c1cc(OC)c(OC)c(OC)c1 | 178 | 279 | 216 | 97 | 386 |  |
| COc1ccc(C(=O)c2cc(OC)c(OC)c([Se]C)c2)cc1F | 34 | 57 | 59 | 33 | 47 |  |
| C=C(c1ccc(OC)cc1)c1cc(OC)c(OC)c([Se]C)c1 | 96 | 91 | 107 | 72 | 126 |  |
| C=C(c1ccc(OC)c(Br)c1)c1cc(OC)c(OC)c([Se]C)c1 | 667 | 171 | 343 | 236 | 691 |  |
| COc1ccc(C(=O)c2cc(OC)c(OC)c(OC)c2)cc1O [PHENSTATIN] | 62 | 122 | 72 | 179 | 108 |  |
| COc1cc(C(=O)c2ccc([Se]C)cc2)cc(OC)c1OC | 65 | 296 | 66 | 69 | 77 |  |
| COc1ccc(C(=O)c2cc(OC)c(OC)c([Se]C)c2)cc1O | 24 | 53 | 79 | 55 | 31 |  |
| C=C(c1ccc(OC)c(C)c1)c1cc(OC)c(OC)c([Se]C)c1 | 599 | 496 | 245 | 141 | 607 |  |
| COc1cc(C(=O)c2ccc(OC)c(OC)c2OC)cc([Se]C)c1OC | 4260 | 523 | 874 | 2750 | 4340 |  |
| COc1ccc(C(=O)c2cc(OC)c(OC)c([Se]C)c2)cc1Cl | 865 | 189 | 253 | 949 | 1530 |  |
| C=C(c1ccc(OC)c(F)c1)c1cc(OC)c(OC)c([Se]C)c1 | 24 | 33 | 82 | 29 | 87 |  |
| COc1ccc(C(=O)c2cc(OC)c(OC)c([Se]C)c2)cc1Br | 435 | 1750 | 169 | 368 | 655 |  |
| C=C(c1ccc(OC)c(O)c1)c1cc(OC)c(OC)c(OC)c1 | 8.5 | 3.7 | 3.8 | 3.5 | 18.3 | IC50 (MGC-803): 19.8 nM; IC50 (A549/CDDP): 69.1 nM; IC50 [3]: 38.6 nM; Ratio IC50 [4]: 19.7; Ratio IC50 [5]: 2.1; remaining at 0.5 h [6]: 85.7%; remaining at 1 h [7]: 77.1%; remaining at 1.5 h [8]: 67.3%; remaining at 2 h [9]: 49.8%; remaining at 2.5 h [10]: 34.3%; half-life [11]: 1.7 h; IC50 [12]: 2760 nM; Activity (A549 [13]): Active; IC50 (MCF7): 48 nM; IC50 (HeLa): 6 nM; IC50 (HCT-116): 24 nM; IC50 (A2780): 26 nM |
| C=C(c1ccc(OC)c(Cl)c1)c1cc(OC)c(OC)c([Se]C)c1 | 83 | 254 | 451 | 196 | 298 |  |
| COc1ccc(C(=O)c2cc(OC)c(OC)c([Se]C)c2)cc1C | 997 | 3150 | 5280 | 1730 | 2300 |  |
| C=C(c1ccc(OC)c(OC)c1)c1cc(OC)c(OC)c([Se]C)c1 | 344 | 299 | 216 | 265 | 473 |  |
| COc1ccc(/C=C\c2cc(OC)c(OC)c(OC)c2)cc1O [COMBRETASTATIN A4] |  |  |  |  |  | remaining at 0.5 h [6]: 67.2%; remaining at 1 h [7]: 26.4%; remaining at 1.5 h [8]: 22.5%; remaining at 2 h [9]: 19.9%; Stability (Liver): Nd(Unstable) |
| C=C(c1ccc(OC)c(OP(=O)(O)O)c1)c1cc(OC)c(OC)c(OC)c1 |  |  |  |  |  | inhibition in vivo at 30 mg/kg (A549 [1]): 52.2% |
| COc1ccc(C(=O)c2cc(OC)c(OC)c([Se]C)c2)cc1OC | 1020 | 766 | 306 | 285 | 1090 |  |
| COc1cc(C(=O)c2cc(OC)c(OC)c([Se]C)c2)cc(OC)c1OC | 741 | 921 | 235 | 172 | 288 |  |
| COc1ccc(/C=C\c2cc(OC)c(OC)c(OC)c2)cc1OP(=O)(O)O [FOSBRETABULIN DISODIUM] |  |  |  |  |  | inhibition in vivo at 30 mg/kg (A549 [1]): 47.6% |
| COc1ccc(C(=O)c2cc(OC)c(OC)c([Se]C)c2)cc1 | 57 | 145 | 47 | 31 | 85 |  |
